Patent US20110110979A1, “METHOD AND VACCINE FOR […] SPECIFIC IMMUNE RESPONSES” (Universite De Lausanne, priority 2008, published 2011)

Columns and labels:
[1] = target: HPV16 E749-57 peptide presented by H-2D^b (human papillomavirus type 16; mouse (C57BL/6)) (UniProt P01899)
[2] = target: HPV16 E749-57 peptide presented by H-2D^b (human papillomavirus type 16; mouse (C57BL/6)) (UniProt P01899); remark: listed apart in the source
[3] = system: E749-57-specific CD8 T cells; assay: ex vivo IFN-γ ELISPOT after sc or i.n. immunization with E71-98 + adjuvants; type: in vivo, C57BL/6 mice; conditions: single 50 μg sc or i.n. dose, no adjuvant; 7 days after immunization
E7-specific CD8 cells = conditions: single dose HSp E7+poly IC followed by three consecutive daily doses of Poly IC alone; cited from earlier work
[4] = system: E749-57-specific CD8 T cells; assay: ex vivo IFN-γ ELISPOT after E7 vaccination followed by ivag immunostimulant; type: in vivo, C57BL/6 mice; conditions: sc E71-98+CpG and HLT day 1; ivag immunostimulant day 6; analysis day 9

“E7-specific CD8 T cells from C57BL/6 mice vaccinated with E71-98 + adjuvants (PBMC, spleen, lymph no (cells without a defined receptor)” gave an ex vivo IFN-γ ELISPOT (E7-specific IFN-γ secreting cells/10^5 cells) [1] of 347 and an in vivo cytotoxicity assay (specific lysis of CFSE-labeled peptide-pulsed splenocytes) [2] of 80%.
In the case of “E71-98: complete synthetic E7 polypeptide (residues 1-98) of human papillomavirus type 16”, the “E7-specific CD8 T cell responses in PBMC” value [3] is reported as “did not induce detectable E7-specific CD8 T cell responses”.
In the case of “polyriboinosinic:polyribocytidylic acid [pI:C]”, the “numbers of E7-specific CD8 cells vs single dose of HspE7+poly IC” value (E7-specific CD8 cells) is listed as “did not elicit a significant increase” and the “E7-specific CD8 T cell responses in CV tissue vs ivag PBS” value [4] is listed as “strongly enhanced”.
